According to US20220062440A1, “OLIGOMER-SELECTIVE FLUORESCENT INDICATOR DYES” (University of South Florida, priority 2018, published 2022):
“Also recorded” adds a separate entry of the source. Like-named read-outs stand apart in the source and are kept apart here. Blank lines part the entries; values can stand above or below the compound they belong to.

What was measured:
[1] = test system: amyloid aggregates (gO/CF and RF); settings: cited from earlier work; for Response to gO/CF vs. RF aggregates (selectivity): literature / background statement
[2] = target: T1, hen egg-white lysozyme (hewL) amyloid aggregates: gO/CFs vs. RFs (Gallus gallus, UniProt P00698); assay: Kinetic dye screening assay: dye fluorescence response during sigmoidal vs. biphasic amyloid assembly, ThT as reference; type: binding; settings: for Oligomer (gO/CF) selectivity over fibrils: hewL amyloid assembly, sigmoidal vs. biphasic kinetics; for Fluorescence response to initial gO/CF (oligomer) phase of biphasic growth / Fluorescence response to RF nucleation and growth: hewL, pH 2, 52° C.; for Fluorescence response to initial gO/CF (oligomer) phase of biphasic growth: above COC (biphasic regime); for Fluorescence response to RF nucleation and growth: second phase of biphasic growth or sigmoidal growth
T1 construct: hen egg-white lysozyme (hewL); from tissue
T1 sequence (P00698 19-147): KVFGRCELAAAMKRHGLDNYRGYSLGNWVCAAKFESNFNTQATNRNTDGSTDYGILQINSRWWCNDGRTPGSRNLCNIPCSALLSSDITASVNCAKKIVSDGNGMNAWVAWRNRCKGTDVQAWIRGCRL
Text: A kinetic assay that clearly delineates growth conditions dominated by gO/CF or RF formation as simple function of protein concentration was developed. This kinetic assay was used in conjunction with high-resolution (AFM or TEM) imaging of aggregate morphologies to identify dyes that display well-defined selectivity of gO/CFs over RFs (FIGS. 1A-1E).
The basis of the kinetic assay is the existence of a “critical oligomer concentration” or COC, distinct from and higher than the protein concentration required for fibril growth [Tatiana Miti, et al. Biomacromolecules (2015) 16:326-335]. Using both hen-egg white lysozyme and a dimeric Aβ construct, it was shown that crossing this COC causes a sharp transition in ThT kinetics from the ubiquitous “sigmoidal” growth kinetics of nucleated polymerization to lag-free bimodal kinetics. The initial phase of bimodal growth is dominated by gO/CF formation while the secondary upswing indicates RF nucleation and growth [Filip Hasecke, et al. Chem. Sci. (2018) 9: 5937-5948]. When below this COC HEWL grows RFS aggregates with a distinct lag phase before the start of growth. Monitoring dye responses both below and above the COC allows rapid determination whether a given fluorescent dye responds only to the initial gO/CF or subsequent RF phase of amyloid growth.
Kinetic transition is an indicator of oligomer formation (Hasecke F. et al., Chem. Sci., 2018 9:5937-5948). The onset of gO/CF formation is delineated by a threshold protein concentration referred to herein as the “critical oligomer concentration” or COC. […] No populations of gO/CFs are observed. In contrast, gO/CF formation above the COC has no lag periods and results in biphasic kinetics (saturating gO/CF kinetics is superimposed to sigmodal RF kinetics). AFM confirms that the initial phase represents gO/CF formation while the second phase indicates RF nucleation and growth. Using this transition from sigmoidal to biphasic kinetics provides an efficient assay for screening dyes for their response to these distinct aggregate species.
Instead of requiring isolation and stabilization of amyloid oligomers, the dye screening protocol proposed here takes the identification of two distinct amyloid assembly regimes with distinctly different assembly kinetics (see FIG. 6 and Hasecke, F., et al. Chemical Science, 2018. 9:5937-5948). […] Following the initial lag phase, this regime yields pure populations of “traditional” rigid fibrils (RFs). It lacks any detectable populations of metastable globular oligomers (gOs) or curvilinear fibrils (CFs) during any stage of fibril assembly. Upon crossing a threshold protein (or salt) concentration a second, oligomer-dominated regime emerges. This regime is characterized by lag-free formation of readily detectable populations of gOs and CFs during its initial phase, with RFs emerging in a second growth phase. The transition to this regime is characterized by a concurrent switch in ThT-monitored assembly kinetics from sigmoidal to biphasic kinetics (Hasecke, F., et al. Chemical Science, 2018. 9:5937-5948; Miti, T., et al. Biomacromolecules, 2015. 16:326-335; Foley, J., et al. J Chem Phys., 2013. 139:121901; Hill, S. E., et al. PLoS ONE, 2011. 6:e18171). Monitoring fluorescence responses of dyes to amyloid assembly under either sigmoidal or biphasic growth conditions provides a direct and straight-forward readout for their selectivity to oligomer over fibril formation.
Using the above transition in the model amyloid hewL a small subset of about one dozen dyes were screened for oligomer-selective responses. Oligomer-free sigmoidal kinetics provided the read-out for dye responses to pure fibril formation—relative to the ThT response recorded under the same conditions. Responsiveness of dyes to gO/CF formation was evaluated during the initial gO/CF phase of biphasic kinetics, as long as it was well separated from the second RF-related upswing. […]

[3] = target: T2, hen egg-white lysozyme (hewL) amyloid aggregates (Gallus gallus, UniProt P00698); assay: AFM imaging of hewL aggregate morphologies during biphasic growth in the presence of dye; settings: 5 mg/ml hewL, pH 2, 52° C., CV 5 μM, listed as CV
T2 construct: hen egg-white lysozyme (hewL); from tissue
T2 sequence (P00698 19-147): as above
Text: FIG. 8B contains AFM images from aliquots taken during biphasic amyloid growth in FIG. 8A from the CV wells at the indicated time points. […] This kinetic assay was used in conjunction with high-resolution (AFM or TEM) imaging of aggregate morphologies to identify dyes that display well-defined selectivity of gO/CFs over RFs (FIGS. 1A-1E). Using the above transition in the model amyloid hewL a small subset of about one dozen dyes were screened for oligomer-selective responses. Oligomer-free sigmoidal kinetics provided the read-out for dye responses to pure fibril formation—relative to the ThT response recorded under the same conditions. Responsiveness of dyes to gO/CF formation was evaluated during the initial gO/CF phase of biphasic kinetics, as long as it was well separated from the second RF-related upswing. Even this very limited and fairly arbitrary set of dyes yielded three different dyes with a modest level of oligomer-specific responses (FIG. 7). While encouraging, the level of oligomer selectivity, the overall fluorescence change upon either fibril or oligomer formation, or the rapid bleaching of the dyes under these growth conditions didn't warrant further investigation. […] It confirms that the progression of hewL aggregates during biphasic growth is not altered by the presence of CV.

Compound: N#CC(C#N)=Cc1ccc(-c2ccc(-c3ccc(O)cc3)s2)s1 [NIAD-4]
- Response to gO/CF vs. RF aggregates (selectivity) [1]: preferentially respond to late stage RFs instead of gOs and CFs

Compound: N#CC(C#N)=Cc1cc2c3c(c1)CCCN3CCC2 [DCVJ, 9-(Dicyanovinyl) Julolidine]
- Response to gO/CF vs. RF aggregates (selectivity) [1]: some oligomer selectivity

Compound: CN(C)c1ccc2cc3ccc(N(C)C)cc3nc2c1 [acridine orange, reference compound]
- Oligomer (gO/CF) selectivity over fibrils [2]: (weak) select responses to oligomer-dominated phase

- Temporal correlation of dye signal with ThT signal ([2]; sigmoidal and initial phase of biphasic growth of hewL): one-to-one temporal correlation
Compound: CN(C)c1ccc(C(=C2C=CC(=[N+](C)C)C=C2)c2ccc(N(C)C)cc2)cc1 [crystal violet, tris(4-(dimethylamino)phenyl)methylium chloride]
- Effect of dye on aggregate types / progression of aggregates (AFM) [3]: not altered; also recorded: did not alter the types of aggregates observed
- Oligomer (gO/CF) selectivity over fibrils [2]: oligomer-selective dye and noticeable oligomer selectivity and OSD and preferentially enhanced upon binding to gO/CFs
- Fluorescence response to initial gO/CF (oligomer) phase of biphasic growth [2]: responds nearly exclusively to the initial (oligomer) phase; also recorded: identical response to amyloid growth prior to the onset of RF formation
- Fluorescence response to initial gO/CF (oligomer) phase of biphasic growth ([2]; listed as CV): robust response to the initial gO/CF dominated phase
- Fluorescence response to initial gO/CF (oligomer) phase of biphasic growth ([2]; listed as Crystal violet): closely match the kinetics of the initial gO/CF phase in ThT kinetics
- Fluorescence response to RF nucleation and growth [2]: weak fibril response; also recorded: little or no response to the onset of RF formation; also recorded: level off
- Fluorescence response to RF nucleation and growth ([2]; listed as CV): lacks the upswing to subsequent RF nucleation and growth; also recorded: weak response to RF formation
- Fluorescence response to RF nucleation and growth ([2]; listed as Crystal violet): very weak responses upon the onset of RF formation
- Amyloid staining ([1]; literature (Cooper 1969)): weak metachromatic amyloid stain

Compound: CC1=C/C(=C(\c2ccc(N)c(S(=O)(=O)[O-])c2)c2ccc(N)c(S(=O)(=O)O)c2)C=C(S(=O)(=O)[O-])C1=N.[Na+].[Na+] [acid fuchsin, reference compound]
- Oligomer (gO/CF) selectivity over fibrils [2]: (weak) select responses to oligomer-dominated phase

Compound: Nc1c(/N=N/c2ccc(-c3ccc(/N=N/c4cc(S(=O)(=O)O)c5ccccc5c4N)cc3)cc2)cc(S(=O)(=O)O)c2ccccc12 [congo red]
- Response to gO/CF vs. RF aggregates (selectivity) [1]: preferentially respond to late stage RFs instead of gOs and CFs

- Oligomer (gO/CF) selectivity over fibrils [2]: noticeable oligomer selectivity
Compound: methyl violet

Compound: O=C(O)c1cc(/C=C/c2ccc(/C=C/c3ccc(O)c(C(=O)O)c3)cc2)ccc1O [X-34, reference compound]
- Oligomer (gO/CF) selectivity over fibrils [2]: (weak) select responses to oligomer-dominated phase

Compound: Cc1ccc2c(c1)sc(-c1ccc(N(C)C)cc1)[n+]2C.[Cl-] [ThT, reference compound]
- Fluorescence response to initial gO/CF (oligomer) phase of biphasic growth [2]: robust response to the initial gO/CF dominated phase; also recorded: expected biphasic behavior as the sample grows gO/CFs up to a first plateau; also recorded: weak biphasic response; also recorded: identical response to amyloid growth prior to the onset of RF formation
- Fluorescence response to RF nucleation and growth [2]: readily picked up; also recorded: second upswing and plateau indicating the onset of RF nucleation and growth; also recorded: continues to rise following RF nucleation
- Response to gO/CF vs. RF aggregates (selectivity) [1]: responds to both gO/CF and RF aggregates, albeit with different sensitivities; also recorded: highly skewed towards late-stage amyloid fibrils
- Response to gO/CF vs. RF aggregates (selectivity) ([1]; listed as Thioflavin T): considerably less enhanced by gO/CF vs. RF formation
- Response to gO/CF vs. RF aggregates (selectivity) ([1]; listed as thioflavin T): preferentially respond to late stage RFs instead of gOs and CFs
